# Experimental data reported in publication PMC9797592, “TJ-M2010-5, a novel CNS drug candidate, attenuates acute cerebral ischemia-reperfusion injury through the MyD88/NF-κB and ERK pathway” (Frontiers in Pharmacology, 2022).
# What was measured:
# [1] = system: MyD88/NF-κB and ERK signaling pathway; test: Simple Western / RT-qPCR of MyD88/NF-κB and ERK pathway in the brain of CIRI mice; type: in vivo, C57BL/6 mice; conditions: TJ-5 15 mg/kg
# Experimental: Total mRNA was extracted from the brain cortex using TRIzol reagent and reverse-transcribed into cDNA using the PrimeScript™ RT reagent kit (Takara, Japan), following the manufacturer’s instructions. RT-qPCR was performed using SYBR Green Real-time PCR Master Mix (Takara, Japan) with the Step One System (Life Technologies). The results were expressed as fold change from the untreated control and analyzed using the 2^−ΔΔCt method. The primers were as follows (5′–3′): MyD88 forward: TTTATCTGCTACTGCCCCAACG, reverse: GCGGCGACACCTTTTCTCA; TLR4 forward: ATGCTGCAACTGATGTTCCTTC, reverse: GATGTTAGACCTTTCTTCCTCCC; GAPDH forward: TGTTCCTACCCCCAATGTGTCC, reverse: GGAGTTGCTGTTGAAGTCGCAG; TNF-α forward: ATGGCCTCCCTCTCATCAGT, reverse: TGGTTTGCTACGACGTGGG; IL-6 forward: AGTGGCTAAGGACCAAGAC, reverse: ATAACGCACTAGGTTTGCCGA; iNOS forward: ATTCACAGCTCATCCGGTACG, reverse: GGATCTTGACCATCAGCTTGC; IL-1β forward: GCACTACAGGCTCCGAGATGAA, reverse: GTCGTTGCTTGGTTCTCCTTGT.
# Here, Simple Western, a novel immunoassay to detect proteins in the brain, was used, as previously described ([Kannan et al., 2018]; [Nanki et al., 2018]). Briefly, the prepared proteins were diluted to a concentration of 0.5 mg/ml using a sample preparation kit (Protein Simple, United States). Then, according to the manufacturer’s instructions, the prepared reagents were added to the detection plate sequentially for processing in an automated capillary electrophoresis system (Simple Western system). The primary antibodies recognized HMGB1, TLR4, MyD88, NeuN, P-ERK, P-IκBα, IκBα, NF-κB p65 (CST, 1:50), Histone H3 (ABclonal, 1:50), and GAPDH (ABclonal, 1:1000). Compass for SW software v4.0.0 (Protein Simple, United States) was used to quantitatively analyze the signal intensity (area) of the protein.
# CIRI mice = test: Immunofluorescence staining (NeuN, TUNEL, Iba-1) of brain slices of CIRI mice; type: in vivo, C57BL/6 mice
# Experimental: As mentioned previously, immunofluorescence staining was performed on paraffin-embedded brain slices ([Ye et al., 2020]). After standard histological procedures, the slices were treated with the TUNEL (terminal deoxynucleotidyl transferase dUTP nick end labeling) reaction mixture to detect apoptosis according to the manufacturer’s protocol (Roche, Germany). Furthermore, the slices were used for immunofluorescence with rabbit anti-NeuN antibody (1:300, CST) and rabbit anti-Iba-1 antibody (1:500, CST). After incubating overnight at 4°C, goat anti-rabbit IgG (1:1000) secondary antibodies were applied, and the brain slices were incubated for 2 h at room temperature. Finally, the slices were washed and labeled with 4′,6-diamidino-2-phenylindole for 10 min at room temperature. Images were captured using a fluorescence microscope.
# BV-2 cells = test: CCK-8 cell viability assay, BV-2; type: cell-based; conditions: concentrations below 20 μM, 24 h
# Experimental: BV-2 and SH-SY5Y cells were seeded in a 96-well plate at a density of 1 × 10^4 cells/well. Twenty-4 hours later, different concentrations of TJ-5 (0, 1, 5, 10, 20, and 30 μM) were added and co-cultured with cells for 24 h. Cell Counting Kit-8 (CCK8, Sigma, Shanghai, China) was used to measure cell viability. Experiments were conducted according to the manufacturer’s instructions. After incubation at 37°C for 2 h, absorbance was measured at 450 nm using a microplate reader (Synergy 2, BioTek Instruments, United States).
compound,measurement,setting,value
O=C(CCN1CCN(Cc2ccccc2)CC1)Nc1nc(-c2ccccc2)cs1 [TJ-5],"expression of HMGB1, TLR4, and MyD88 in the ischemic hemisphere",[1],downregulated
same,phosphorylation of ERK in the ischemic hemisphere,[1],inhibited
same,phosphorylation of IκBα and nuclear translocation of NF-κB p65 in the ischemic hemisphere,[1],reduced
same,NeuN protein levels in the brain,[1]; I/R-induced decrease,attenuated this decrease
same,apoptosis (TUNEL) in whole brain and ischemic penumbra of the cortex,CIRI mice; TJ-5 15 mg/kg i.v. after 1 h ischemia,significantly reduced
same,number of neurons (NeuN) in the injured hemisphere,CIRI mice; TJ-5 15 mg/kg vs vehicle group,significantly increased
same,number of Iba-1 positive cells in cortex,"CIRI mice; TJ-5 15 mg/kg, vs I/R group",significantly decreased
same,viability of BV-2 cells,BV-2 cells,did not affect the viability
